Test results taken from patent US8399518B2, “Administration of 3,5-diiodothyropropionic acid for stimulating weight loss, and/or lowering triglyceride levels, and/or treatment of metabolic syndrome” (University of Arizona Office of Technology Transfer, priority 2007, dated 2013).

Assay: Human clinical study with DITPA: weight loss in patients with a history of congestive heart failure
Assay type: in vivo
Details: maximum 26 weeks; for patients who experienced a weight loss of 2% or more: DITPA or placebo (2:1) orally, 90 mg/day increased to 180 or 360 mg/day
Procedure: Fifty-four patients with a history of congestive heart failure were administered DITPA or placebo in a 2:1 randomized and double-blinded manner for a maximum of 26 weeks. […] The patients in the study were administered DITPA orally twice per and the dose began at 90 mg/day and increased to 180 mg/day after two weeks. In half of the DITPA patients, the dose was increased further to 270 mg/day after two weeks, and then to 360 mg/day. Patients were randomized 1:1:1 to DITPA 180 mg/day, DITPA 360 mg/day, or placebo.

Q: Which results are given for `O=C(O)CCc1cc(I)c(Oc2ccc(O)cc2)c(I)c1` [DITPA, 3,5-diiodothyropropionic acid]?
A: decrease in weight, overweight patients versus patients of normal body weight (oral DITPA 180 or 360 mg/day): greater decrease in weight in overweight patients than those of normal body weight; patients who experienced a weight loss of 2% or more (patients with body mass index greater than 25): 71.05%; patients who experienced a weight loss of 2% or more (patients with body mass index less than or equal to 25): 37.5%
